ChEMBL document CHEMBL1136088, “Antitumor agents. Part 218: Cappamensin A, a new In vitro anticancer principle, from Capparis sikkimensis” (2003)
Values after ≈ are worked out from the molar mass of the structure shown. Active and inactive are the calls of the source. The calls are words filed in the database; no cut-off is given here.

Key:
A549 = assay: In vitro anticancer activity against human lung (A549) cell line; assay type: functional; conditions: for EC50: read-out: ED50 (the source's name)
KB-VIN [1] = assay: In vitro anticancer activity against human vincristine-resistant tumor cell line (KB-VIN); conditions: read-out: ED50 (the source's name)
MCF7 = assay: In vitro anticancer activity against human breast (MCF-7) cell line; assay type: functional; conditions: for EC50: read-out: ED50 (the source's name)
KB-VIN [2] = assay: In vitro anticancer activity against human vincristine-resistant tumor cell line (KB-VIN)
[3] = In vitro anticancer activity against human epidermoid nasopharyngeal tumor cell line (KB); assay type: functional; conditions: for EC50: read-out: ED50 (the source's name)
[4] = In vitro anticancer activity against human ovarian cancer ([…]) cell line; assay type: functional; conditions: read-out: ED50 (the source's name)
U-87 MG = assay: In vitro anticancer activity against human glioblastoma tumor cell line (U-87-MG); assay type: functional, U-87MG ATCC; conditions: for EC50: read-out: ED50 (the source's name)
PC-3 = assay: In vitro anticancer activity against human prostate (PC-3) cell line; assay type: functional; conditions: for EC50: read-out: ED50 (the source's name)
SK-MEL-2 [5] = assay: In vitro anticancer activity against human melanoma cancer (SK-MEL-2) cell line; not active at 20 ug/mL; assay type: functional, cell-based
HCT-8 = assay: In vitro anticancer activity against human ileocecal tumor cell line (HCT-8); assay type: functional; conditions: for EC50: read-out: ED50 (the source's name)
SK-MEL-2 [6] = assay: In vitro anticancer activity against human melanoma cancer (SK-MEL-2) cell line; assay type: functional

Row | EC50 (A549) [µg/mL] | EC50 (KB-VIN [1]) [µg/mL] | EC50 (MCF7) [µg/mL] | EC50 [3] [µg/mL] | EC50 [4] [µg/mL] | EC50 (U-87 MG) [µg/mL] | EC50 (PC-3) [µg/mL] | EC50 (HCT-8) [µg/mL] | EC50 (SK-MEL-2 [6]; read-out: ED50 (the source's name)) [µg/mL] | SMILES | Inhibition (A549) [%] | Inhibition (MCF7) [%] | Inhibition (KB-VIN [2]) [%] | Inhibition [3] [%] | Inhibition (U-87 MG) [%] | Inhibition (PC-3) [%] | ED50 (SK-MEL-2 [5]) | Inhibition (HCT-8) [%] | Inhibition (SK-MEL-2 [6]) [%]
1 | > 20 | > 20 | > 20 | > 20 | 20 (≈ 85 µM) | > 20 | > 20 | > 20 | – | COC1=C(C)Oc2cc(OC)ccc2N1C=O | 36 | 49 | 20 | 22 | 19 | 37 | inactive | 39 | –
2 | 3.6 (≈ 16.3 µM) | 3.5 (≈ 15.8 µM) | 4 (≈ 18.1 µM) | 4 (≈ 18.1 µM) | 2.4 (≈ 10.8 µM) | > 5 | 4.7 (≈ 21.2 µM) | 3.6 (≈ 16.3 µM) | > 5 | COc1ccc2c(c1)OC(C)=C(O)N2C=O | – | – | – | – | 36 | – | – | – | 30
